Data published in US20200054589A1, “COMBINATION OF A PPAR AGONIST WITH A FXR AGONIST” (Genfit, priority 2017, published 2020).

Assays:
[1] = test system: TGFβ1-induced human primary hepatic stellate cells (hHSC), α-SMA; experiment: α-SMA ELISA in TGFβ1-activated hHSC (in vitro model of hepatic fibrogenesis), synergy by Excess Over Bliss; format: cell-based; details: TGFβ1 1 ng/ml, 48 h
Description: The human primary hepatic stellate cells (hHSC) (Innoprot) were cultured in STeCM medium (ScienCell cat #5301) supplemented with 2% fetal bovine serum (FBS, ScienCell cat #0010), 1% penicillin/streptomycin (ScienCell cat #0503) and stellate cell growth supplement (SteCGS; ScienCell cat #5352). Cell-culture flasks were coated with Poly-L Lysine (Sigma cat # P4707) for a better adherence.
The FXR agonist INT-767 (CAS #1000403-03-1, Cat # HY-12434, batch #19249) was obtained commercially from Haoyuan Chemexpress. For these experiments, a checkerboard matrix was generated. […]
The level of α-SMA was measured using a Sandwich ELISA. […]
The values obtained in the αSMA ELISA assays were first transformed into percentage inhibitions over TGF-β1 control. Then, using these percentage inhibitions, EOB (Excess Over Bliss) was determined to define the synergistic effects of drug combinations. Expected Bliss additivism score (E) was firstly determined by the equation: […]
For the combinations INT-767/Elafibranor, an additional total Bliss score was calculated by summation of all EOB. […]
The significance of the observed differences between INT-767/Elafibranor over the highest single agent was determined by a student's t-test. *: p<0.05; **: p<0.01; ***: p<0.001.

[2] = test system: fibrosing NASH-model of rats fed a CDAA+1% cholesterol diet; experiment: Liver histology (picrosirius fibrosis surface, NASH lesions) in chronic CDAA+1% cholesterol model (12 weeks); format: in vivo, Wistar rats
Description: (§1) The preventive effects of Elafibranor (GFT505) alone, OCA alone and the combination of both were assessed in a fibrosing NASH-model of rats fed a CDAA+1% cholesterol diet. 150-175 g male Wistar rats were fed a control (CSAA) diet, CDAA+1% cholesterol diet, or CDAA+1% cholesterol diet supplemented with Elafibranor 1, 3 and 10 mg/kg/day, OCA 10 and 30 mg/kg/day or combined drugs (Elafibranor 1, 3 and 10 mg/kg/day combined to OCA 10 mg/kg/day) for 12 weeks.
(§2) The body weight and the food intake were monitored twice per week. On the last day of treatment, rats were sacrificed after a 6 h fasting period. The liver was rapidly excised for biochemical and histological studies.
The liver slices were first fixed for 12 hours in formalin 4% solution. Then, the liver pieces were washed 30 minutes in PBS, and dehydrated in ethanol solutions (successive baths at 70, 80, 95 and 100% ethanol). The liver pieces were incubated in three different baths of Xylene (Sigma-Aldrich cat #534056), followed by two baths in liquid paraffin (56° C.). Liver pieces were then put into racks that were gently filled with Histowax® to completely cover the tissue. The paraffin blocks containing the tissue pieces were removed from the racks and stored at room temperature. The liver blocks were cut into […] slices.
Liver sections were deparaffinized, rehydrated and incubated for 15 minutes in a solution of Fast Green FCF 0.1% (Sigma-Aldrich, cat # F7258) before rinsing in a bath of 0.5% acetic acid (Panreac, cat #131008.1611). […]
A technician blinded to the source of each liver specimen performed histological examinations. […] Briefly, steatosis, lobular inflammation and hepatocytes ballooning were scored. […]
Using Quant Center software (3D Histech, including Pattern Quant and Histo Quant modules), collagen-stained areas were quantified. […] The fibrosis area was then expressed as the percentage of the collagen surface to the whole tissue per animal.

[3] = test system: fibrosing NASH-model of rats fed a CDAA+1% cholesterol diet; experiment: Hepatic collagen content (hydroxyproline, QuickZyme) in CDAA+1% cholesterol model; format: in vivo, Wistar rats; details: Percentage over the untreated CDAA + 1% cholesterol rats; 12 weeks; GFT505 3 mg/kg/d, OCA 10 mg/kg/d, or GFT505 + OCA; mean ± SD
Description: as §1, §2
The hepatic collagen content was determined using the appropriate QuickZyme kit (Total collagen assay, cat # QZB-totcol2). The assay is based on the detection of hydroxyproline, which is a non-proteinogenic amino acid mainly found in the triple helix of collagen. Thus, hydroxyproline in tissue hydrolysates can be used as a direct measure of the amount of collagen present in the tissue (without discrimination between procollagen, mature collagen and collagen degradation products). Complete hydrolysis of tissue samples in 6M HCl at 95° C. is required before dosing the hydroxyproline. The assay results in the generation of a chromogen with a maximum absorbance at 570 nm. Results are expressed as mg of collagen/g of liver.

[4] = test system: genes involved in tissue remodeling and inflammation (αSMA (ACTA2), TIMP1, TGFB1, CCR5) in CDAA/chol fed rat livers; experiment: Hepatic gene expression analysis (quantitative PCR) in CDAA+1% cholesterol model; format: in vivo, Wistar rats; details: liver; Percentage over the untreated CDAA + 1% cholesterol rats; 12 weeks; GFT505 3 mg/kg/d, OCA 10 mg/kg/d, or GFT505 + OCA
Description: as §1, §2
Total RNA was isolated from rat livers using RNeasy Mini Kit (Qiagen) following manufacturer's instructions. Total RNA were reverse transcribed into cDNA using M-MLV RT (Moloney Murine Leukemia Virus Reverse Transcriptase) (Invitrogen cat #28025) in 1× RT buffer (Invitrogen), 0.5 mM DTT (Invitrogen), 0.18 mM dNTPs (Promega), 200 ng pdN6 (Amersham) and 30 U of RNase inhibitor (Promega).
Quantitative PCR was then carried out using the CFX96 Touch™ Real-Time PCR Detection System (Biorad). Briefly, the PCR reactions were performed in 96-WP format in 25 μl of total volume containing 1 μL of reverse transcription reaction, 0.5 μL of reverse and forward primers (10 pmol each), and 12.5 μl of 2× iQ SYBR Green Supermix (BioRad), using the following primer sequences:
Expression levels were normalized using the expression of Rplp0 gene as a reference in samples. For each gene, the standard curves were drawn by selecting the best points (at least three points) in order to have PCR reaction efficiency close to 100% and a correlation coefficient close to 1. Expression levels were determined using the standard curve equation for both the housekeeping gene and the target gene (taking into account the specific PCR efficiency of each target gene).

Row | Structure (SMILES) | antifibrotic activity (α-SMA inhibition), in words ([1]; 1.9 μM of INT-767 alone) | inhibition at 30 µM ([1]; Homo sapiens, highest dose of INT-767 tested, 30 μM, read-out: α-SMA production inhibition over TGFβ1 control) | effects on ballooning and lobular inflammation, in words ([2]; CDAA/chol diet-induced NASH model) | effect on fibrosis development, in words (FIGS. 1-2) ([2]; CDAA/chol fed rats, 12 weeks, fibrosis surface and hepatic collagen) | Fibrosis surface ([2]; Percentage over the untreated CDAA + 1% cholesterol rats, 12 weeks in diet, GFT505 3 mg/kg/d, OCA 10 mg/kg/d, or GFT505 + OCA, mean ± SD) | Hepatic collagen content [3] | CCR5 mRNA level (marker of inflammation) [4] | TGFβ1 mRNA level [4] | TIMP1 mRNA level [4] | α-SMA mRNA level [4]
1 | CC[C@H]1[C@@H](O)[C@@H]2[C@H](CC[C@]3(C)[C@@H]([C@H](C)CCOS(=O)(=O)[O-])CC[C@@H]23)[C@@]2(C)CC[C@@H](O)C[C@@H]12.[Na+] [INT-767] | does not show any antifibrotic activity | 13% |  |  |  |  |  |  |  | 
2 | CC[C@H]1[C@@H](O)[C@@H]2[C@H](CC[C@]3(C)[C@@H]([C@H](C)CCC(=O)O)CC[C@@H]23)[C@@]2(C)CC[C@@H](O)C[C@@H]12 [OCA, 6α-ethyl chenodeoxycholic acid] |  |  | rather modest | does not attenuate fibrosis in a significant manner | 74% ± 45% | 67% ± 23% | 81% ± 28% | 110% ± 23% | 110% ± 43% | 109% ± 68%
